# What was measured:
# Mus musculus [1] = experiment: Tested for anticonvulsant activity against mice at 4 hr at a peroral dose of 10 mg/Kg by maximal electroshock seizure (MES) test; format: functional
# Mus musculus [2] = experiment: Tested for anticonvulsant activity against mice at 4 hr at a peroral dose of 75 mg/Kg by maximal electroshock seizure (MES) test; format: functional
# Mus musculus [3] = experiment: Tested for effective dose required to produce anticonvulsant activity against mice at 4 hr (po); format: functional
# Mus musculus [4] = experiment: Tested for anticonvulsant activity against mice at 4 hr at a peroral dose of 1 mg/Kg by maximal electroshock seizure (MES) test; format: functional
# Mus musculus [5] = experiment: Tested for anticonvulsant activity against mice at 4 hr at a peroral dose of 60 mg/Kg by maximal electroshock seizure (MES) test; format: functional
# Mus musculus [6] = experiment: Tested for effective dose required to produce anticonvulsant activity against mice at 16 hr (po); format: functional
# Mus musculus [7] = experiment: Tested for anticonvulsant activity against mice at 4 hr at a peroral dose of 200 mg/Kg by maximal electroshock seizure (MES) test; format: functional
# Mus musculus [8] = experiment: Tested for anticonvulsant activity against mice at 4 hr at a peroral dose of 300 mg/Kg by maximal electroshock seizure (MES) test; format: functional
# [9] = Therapeutic index relative to neurotoxicity ([…]) was determined in the rotarod test.
# Mus musculus [10] = experiment: Tested for anticonvulsant activity against mice at 4 hr at a peroral dose of 35 mg/Kg by maximal electroshock seizure (MES) test; format: functional
# Mus musculus [11] = experiment: Tested for anticonvulsant activity against mice at 4 hr at a peroral dose of 3 mg/Kg by maximal electroshock seizure (MES) test; format: functional
# [12] = Mus musculus, po, 4 h, read-out: ED50
Structure (SMILES),Block (Mus musculus [1]) [%],Block (Mus musculus [2]) [%],ED50 (Mus musculus [3]; [12]) [mg/kg],other results
CC1(C)O[C@H]2[C@@H]3OS(=O)(=O)O[C@@H]3CO[C@@]2(COS(=O)(=O)NC2CCCCCCC2)O1,0,30,,
CNS(=O)(=O)OC[C@@]12OC[C@H]3OS(=O)(=O)O[C@H]3[C@@H]1OC(C)(C)O2,100,,7.4,
CC1(C)O[C@H]2[C@@H]3OS(=O)(=O)O[C@@H]3CO[C@@]2(COS(=O)(=O)NC2CC2)O1,90,,7.3,Block (Mus musculus [4]): 0%
CC1(C)O[C@@H]2[C@@H](CO[C@@]3(COS(N)(=O)=O)OC(C)(C)O[C@@H]23)O1 [TOPIRAMATE],,,,Block (Mus musculus [5]): 60%; ED50 (Mus musculus [6]): 720 mg/kg; ED50 (Mus musculus [3]): 53.5 mg/kg
CC1(C)O[C@H]2[C@@H]3OS(=O)(=O)O[C@@H]3CO[C@@]2(COS(=O)(=O)NC2CCC2)O1,90,,,Block (Mus musculus [4]): 0%
CC1(C)O[C@H]2[C@@H]3OS(=O)(=O)O[C@@H]3CO[C@@]2(COS(=O)(=O)NCc2ccccc2)O1,0,100,,
C=CCNS(=O)(=O)OC[C@@]12OC[C@H]3OS(=O)(=O)O[C@H]3[C@@H]1OC(C)(C)O2,70,,,Block (Mus musculus [4]): 0%
CNS(=O)(=O)OC[C@@]12OC[C@H]3OC(C)(C)O[C@H]3[C@@H]1OC(C)(C)O2,,60,,Block (Mus musculus [7]): 100%
CC1(C)O[C@H]2[C@@H]3OS(=O)(=O)O[C@@H]3CO[C@@]2(COS(=O)(=O)Nc2ccccc2)O1,,0,,Block (Mus musculus [8]): 0%
CN(C)S(=O)(=O)OC[C@@]12OC[C@H]3OC(C)(C)O[C@H]3[C@@H]1OC(C)(C)O2,,0,,Block (Mus musculus [7]): 80%
CC1(C)O[C@H]2[C@@H]3OS(=O)(=O)O[C@@H]3CO[C@@]2(COS(N)(=O)=O)O1,80,,6.3,ED50 (Mus musculus [6]): 41.5 mg/kg; selectivity ratio [9]: > 150
O=C1NC(=O)C(c2ccccc2)(c2ccccc2)N1 [PHENYTOIN],,,6.4,
CCCCNS(=O)(=O)OC[C@@]12OC[C@H]3OS(=O)(=O)O[C@H]3[C@@H]1OC(C)(C)O2,30,,,Block (Mus musculus [10]): 100%
CCNS(=O)(=O)OC[C@@]12OC[C@H]3OS(=O)(=O)O[C@H]3[C@@H]1OC(C)(C)O2,,,14.4,Block (Mus musculus [11]): 0%; Block (Mus musculus [10]): 100%
CC1(C)O[C@H]2[C@@H]3OS(=O)(=O)O[C@@H]3CO[C@@]2(COS(=O)(=O)NCC(F)(F)F)O1,40,90,,
CCCCCCCCNS(=O)(=O)OC[C@@]12OC[C@H]3OS(=O)(=O)O[C@H]3[C@@H]1OC(C)(C)O2,0,100,,
CC1(C)O[C@H]2[C@@H]3OS(=O)O[C@@H]3CO[C@@]2(COS(N)(=O)=O)O1 (stereo in doubt; 3b),,,,ED50 (Mus musculus [3]): 6.5 mg/kg
CN(C)S(=O)(=O)OC[C@@]12OC[C@H]3OS(=O)(=O)O[C@H]3[C@@H]1OC(C)(C)O2,70,,6.9,Block (Mus musculus [10]): 100%
CC1(C)O[C@H]2[C@@H]3OS(=O)O[C@@H]3CO[C@@]2(COS(N)(=O)=O)O1 (stereo in doubt; 3a),70,,6.3,
CCN(CC)S(=O)(=O)OC[C@@]12OC[C@H]3OS(=O)(=O)O[C@H]3[C@@H]1OC(C)(C)O2,10,100,,

# Source: ChEMBL document CHEMBL1126999, “Anticonvulsant sugar sulfamates. Potent cyclic sulfate and cyclic sulfite analogues of topiramate” (Bioorg Med Chem Lett, 1993)
